Experimental data from PubChem BioAssay AID1963829 (Molecular Pharmacology Branch, DTP, NCI, 2024).

System: 935938-334-R-J1-PDC complex spheroid viability
Assay: Anticancer human tumor 935938-334-R-J1-PDC patient-derived small intestine adenocarcinoma cell line growth inhibition [POLQ]
Conditions: for IC50: curve of first compound; for viability, T/C: stronger effect = lower value
How it was run: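 Growth inhibition in 3D: complex spheroids (tumor PDC, HUVEC, MSC) treated with POLQ inhibitor combinations; where Cmax unknown, highest tested concentration 10 microM, except SN-38 at 1 microM.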

[1] = second compound 0.0316 µM, first compound 0.00316 µM
[2] = second compound 0.0316 µM, first compound 0.01 µM
[3] = second compound 0.0316 µM, first compound 0.0316 µM
[4] = second compound 0.0316 µM, first compound 0.1 µM
[5] = second compound 0.1 µM, first compound 0.00316 µM
[6] = second compound 0.1 µM, first compound 0.01 µM
[7] = second compound 0.1 µM, first compound 0.0316 µM
[8] = second compound 0.1 µM, first compound 0.1 µM
[9] = second compound 0.316 µM, first compound 0.00316 µM
[10] = second compound 0.316 µM, first compound 0.01 µM
[11] = second compound 0.316 µM, first compound 0.0316 µM
[12] = second compound 0.316 µM, first compound 0.1 µM
[13] = second compound 1 µM, first compound 0.00316 µM
[14] = second compound 1 µM, first compound 0.01 µM
[15] = second compound 1 µM, first compound 0.0316 µM
[16] = second compound 1 µM, first compound 0.1 µM
[17] = second compound 3.16 µM, first compound 0.00316 µM
[18] = second compound 3.16 µM, first compound 0.01 µM
[19] = second compound 3.16 µM, first compound 0.0316 µM
[20] = second compound 3.16 µM, first compound 0.1 µM
[21] = second compound 10 µM, first compound 0.00316 µM
[22] = second compound 10 µM, first compound 0.01 µM
[23] = second compound 10 µM, first compound 0.0316 µM
[24] = second compound 10 µM, first compound 0.1 µM
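Further: spheroids exposed to drugs for seven days before viability read.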
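Wherever viability, T/C is given: 100% = DMSO vehicle control wells.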

## COc1cccc(OCCCN)c1-c1cc(Nc2cnc(C#N)cn2)n[nH]1 + Cc1cccc(N(C)C(=O)C2C(O)CCN2c2nc(C)cc(C(F)(F)F)c2C#N)c1
Second compound 0.0316 µM
  IC50: 0.0559 µM
Second compound 0.1 µM
  IC50: 0.0509 µM
Second compound 0.316 µM
  IC50: 0.0409 µM
Second compound 1 µM
  IC50: 0.0437 µM
Second compound 3.16 µM
  IC50: 0.04 µM
Second compound 10 µM
  IC50: 0.0385 µM
[1]
  viability, T/C: 118%
[2]
  viability, T/C: 94.9%
[3]
  viability, T/C: 65.2%
[4]
  viability, T/C: 36.8%
Second compound 0.0316 µM, first compound 0.316 µM
  viability, T/C: 12.2%
Second compound 0.0316 µM, first compound 1 µM
  viability, T/C: 8.59%
[5]
  viability, T/C: 101%
[6]
  viability, T/C: 75.2%
[7]
  viability, T/C: 69.6%
[8]
  viability, T/C: 31%
Second compound 0.1 µM, first compound 0.316 µM
  viability, T/C: 9.36%
Second compound 0.1 µM, first compound 1 µM
  viability, T/C: 10.3%
[9]
  viability, T/C: 96%
[10]
  viability, T/C: 95.2%
[11]
  viability, T/C: 48.1%
[12]
  viability, T/C: 35.3%
Second compound 0.316 µM, first compound 0.316 µM
  viability, T/C: 10.1%
Second compound 0.316 µM, first compound 1 µM
  viability, T/C: 10.6%
[13]
  viability, T/C: 106%
[14]
  viability, T/C: 86%
[15]
  viability, T/C: 60.7%
[16]
  viability, T/C: 28.5%
Second compound 1 µM, first compound 0.316 µM
  viability, T/C: 9.11%
Second compound 1 µM, first compound 1 µM
  viability, T/C: 9.21%
[17]
  viability, T/C: 138%
[18]
  viability, T/C: 90.6%
[19]
  viability, T/C: 69.5%
[20]
  viability, T/C: 15.7%
Second compound 3.16 µM, first compound 0.316 µM
  viability, T/C: 8.96%
Second compound 3.16 µM, first compound 1 µM
  viability, T/C: 11.1%
[21]
  viability, T/C: 96.5%
[22]
  viability, T/C: 94.8%
[23]
  viability, T/C: 57.9%
[24]
  viability, T/C: 11.6%
Second compound 10 µM, first compound 0.316 µM
  viability, T/C: 11.9%
Second compound 10 µM, first compound 1 µM
  viability, T/C: 9.17%

## CC[C@@]1(O)C(=O)OCc2c1cc1n(c2=O)Cc2cc3c(CN(C)C)c(O)ccc3nc2-1 + Cc1cccc(N(C)C(=O)C2C(O)CCN2c2nc(C)cc(C(F)(F)F)c2C#N)c1
Second compound 0.0316 µM
  IC50: > 0.1 µM
Second compound 0.1 µM
  IC50: > 0.1 µM
Second compound 0.316 µM
  IC50: > 0.1 µM
Second compound 1 µM
  IC50: 0.0918 µM
Second compound 3.16 µM
  IC50: > 0.1 µM
Second compound 10 µM
  IC50: > 0.1 µM
Second compound 0.0316 µM, first compound 0.000316 µM
  viability, T/C: 123%
Second compound 0.0316 µM, first compound 0.001 µM
  viability, T/C: 111%
[1]
  viability, T/C: 95.1%
[2]
  viability, T/C: 90.4%
[3]
  viability, T/C: 70.6%
[4]
  viability, T/C: 69.2%
Second compound 0.1 µM, first compound 0.000316 µM
  viability, T/C: 105%
Second compound 0.1 µM, first compound 0.001 µM
  viability, T/C: 113%
[5]
  viability, T/C: 109%
[6]
  viability, T/C: 128%
[7]
  viability, T/C: 68.5%
[8]
  viability, T/C: 82.7%
Second compound 0.316 µM, first compound 0.000316 µM
  viability, T/C: 112%
Second compound 0.316 µM, first compound 0.001 µM
  viability, T/C: 102%
[9]
  viability, T/C: 118%
[10]
  viability, T/C: 88%
[11]
  viability, T/C: 89.9%
[12]
  viability, T/C: 51.2%
Second compound 1 µM, first compound 0.000316 µM
  viability, T/C: 126%
Second compound 1 µM, first compound 0.001 µM
  viability, T/C: 115%
[13]
  viability, T/C: 92.9%
[14]
  viability, T/C: 111%
[15]
  viability, T/C: 79.9%
[16]
  viability, T/C: 46.3%
Second compound 3.16 µM, first compound 0.000316 µM
  viability, T/C: 101%
Second compound 3.16 µM, first compound 0.001 µM
  viability, T/C: 92.9%
[17]
  viability, T/C: 112%
[18]
  viability, T/C: 112%
[19]
  viability, T/C: 68.4%
[20]
  viability, T/C: 54%
Second compound 10 µM, first compound 0.000316 µM
  viability, T/C: 97%
Second compound 10 µM, first compound 0.001 µM
  viability, T/C: 95.3%
[21]
  viability, T/C: 84.7%
[22]
  viability, T/C: 84.5%
[23]
  viability, T/C: 101%
[24]
  viability, T/C: 55.2%
